According to US20020061838A1, “Peptide pharmaceutical formulations” (priority 2000, published 2002):

Legend:
[1] = Stability of GLP-1, PTH and GRF in the preferred formulation by reversed phase HPLC (percent peptide remaining); details: 10 mM acetate; for Percent peptide remaining: 5.07% (w/v) D-mannitol, pH 4.7; for stability: 4, 8, and 10 mg/mL, pH 4.7, 5.07% D-mannitol
Description: The vials were stored at the indicated temperatures for the indicated times. Samples were removed and assayed for the loss of parent peptide by HPLC, using a reversed phase C18 (1×15 cm) analytical column. Samples (10 μl) were injected directly and resolved with a gradient of acetonitrile in water, in the presence of 0.1% trifluoroacetic acid. Percent peptide remaining at the times indicated was calculated as the area of the intact peptide divided by the total area of the intact peptide plus that of the decomposition products times 100.

[2] = Tolerability and response after subcutaneous or intravenous delivery of the formulations in humans
[3] = Long-term stability in the preferred embodiment (HPLC and/or bioactivity)
Description: The vials containing 1 mL of formulated drug were put into thermostatted chambers and assayed for % peptide remaining as a function of time after storage at different temperatures. Bioactivity of the formulations at the time points was also measured.
GRF activity was assessed similarly using a cell line containing an expressed GRF receptor and monitoring the response of cell to GRF by the cAMP-responsive secreted alkaline phosphatase reporter system.

[4] = Total GRF in plasma after intravenous bolus in a rat; format: in vivo; details: intravenous bolus of 20 μg, 10 mM sodium acetate, 5.07% D-mannitol, pH 4.7
Description: Total GRF detected in the plasma of a rat following intravenous administration of 20 μg of GRF in the preferred formulation (4 mg/mL GRF dissolved in 10 mM sodium acetate, 5.07% D-mannitol, adjusted to pH 4.7).

[5] = pH 7.4; cited from earlier work

Compound | Percent peptide remaining ([1]; 4 mg/mL, 14 days, 4° C.) | Percent peptide remaining ([1]; 4 mg/mL, 14 days, 25° C.) | Percent peptide remaining ([1]; 4 mg/mL, 14 days, 50° C.) | Percent peptide remaining ([1]; 8 mg/mL, 14 days, 4° C.) | Percent peptide remaining ([1]; 8 mg/mL, 14 days, 25° C.) | Percent peptide remaining ([1]; 8 mg/mL, 14 days, 50° C.) | Percent peptide remaining ([1]; 10 mg/mL, 14 days, 4° C.) | Percent peptide remaining ([1]; 10 mg/mL, 14 days, 25° C.) | Percent peptide remaining ([1]; 10 mg/mL, 14 days, 50° C.) | stability ([1]; 25° C., 14 days) | stability ([1]; 50° C., 14 days) | stability ([1]; −20° C. to 4° C., over 14 days) | complications of delivery ([2]; human subjects, intravenous and subcutaneous delivery, preferred formulations) | discomfort at the injection site ([2]; humans, subcutaneous, about 1 mL) | stability (additional formulations, extended periods) ([3]; 4-6 weeks at 25° C.) | stability (additional formulations, extended periods) ([3]; 12 months at 4° C.) | stability compared with the GLP-1 formulations ([3]; formulations where the peptide is GRF or PTH, Drawings 3, 5) | appearance of peptide in blood plasma [4] | period over which the peptide was stable ([3]; about 0.005 to 1.0 mg/mL, 4° C., inventive formulations) | solubility at physiological pH [5]
CC[C@H](C)[C@H](NC(=O)[C@H](C)NC(=O)[C@H](CC(=O)O)NC(=O)[C@H](C)NC(=O)[C@@H](N)Cc1ccc(O)cc1)C(=O)N[C@@H](Cc1ccccc1)C(=O)N[C@H](C(=O)N[C@@H](CC(N)=O)C(=O)N[C@@H](CO)C(=O)N[C@@H](Cc1ccc(O)cc1)C(=O)N[C@@H](CCCNC(=N)N)C(=O)N[C@@H](CCCCN)C(=O)N[C@H](C(=O)N[C@@H](CC(C)C)C(=O)NCC(=O)N[C@@H](CCC(N)=O)C(=O)N[C@@H](CC(C)C)C(=O)N[C@@H](CO)C(=O)N[C@@H](C)C(=O)N[C@@H](CCCNC(=N)N)C(=O)N[C@@H](CCCCN)C(=O)N[C@@H](CC(C)C)C(=O)N[C@@H](CC(C)C)C(=O)N[C@@H](CCC(N)=O)C(=O)N[C@@H](CC(=O)O)C(=O)N[C@H](C(=O)N[C@@H](CCSC)C(=O)N[C@@H](CO)C(=O)N[C@@H](CCCNC(=N)N)C(=O)N[C@@H](CCC(N)=O)C(=O)N[C@@H](CCC(N)=O)C(=O)NCC(=O)N[C@@H](CCC(=O)O)C(=O)N[C@@H](CO)C(=O)N[C@@H](CC(N)=O)C(=O)N[C@@H](CCC(N)=O)C(=O)N[C@@H](CCC(=O)O)C(=O)N[C@@H](CCCNC(=N)N)C(=O)NCC(=O)N[C@@H](C)C(=O)N[C@@H](CCCNC(=N)N)C(=O)N[C@@H](C)C(=O)N[C@@H](CCCNC(=N)N)C(=O)N[C@@H](CC(C)C)C(N)=O)[C@@H](C)CC)C(C)C)[C@@H](C)O [GRF, GRF(1-44)amide] | 98% | 96% | 63% | 98% | 96% | 63% | 98% | 96% | 63% | at least 96% | 63% | at least 98% | no significant complications | no apparent discomfort | at least 90% | at least 90% | comparable stability | rapidly appears in the blood plasma | – | –
PTH(1-34)OH | – | – | – | – | – | – | – | – | – | – | – | – | – | – | – | – | – | – | 4 months | up to 4 mg/mL
